Reference: US7713960B2, “Inhibition of the Raf/Mek/P-Erk pathway for treating cancer” (University of South Florida, priority 2005, dated 2010)
Counter-ions that a name gives are not always drawn.

What was measured:
Format in all cases: cell-based, human
ACHN cells = assay: Total cellular cAMP measurement, ACHN
Description: Total cellular cAMP measurement—The measurement of total cellular cAMP was done using a cAMP Biotrak ™ Enzymeimmunoassay (EIA) system (Amersham Biosciences, Piscataway, N.J.) according to the manufacturer's protocol. Briefly, 2000 cells were plated into each well of a 96 well plate. The next day cells were treated with increasing concentrations of ARA-211 or with vehicle for one hour. Alternatively, MDA-MB-231 cells were pre-treated with antagonists to the α1 (Prazosin, Sigma), α2 (Yohimbine, Sigma), β1 (Metoprolol, Sigma), and β2 (ICI 118.551, Sigma) adrenergic receptors at 100 nM for 15 minutes followed by treatment with 10 μM ARA-211 for 45 minutes. Cells were then lysed directly in the wells using the supplied lysis buffer. The lysate was transferred to a 96-well cAMP ELISA plate, and results were quantified using a Wallac Victor 2 plate reader.

SNB-19 cells = assay: Anchorage-dependent growth (MTT assay), SNB-19; conditions: n = 3
Description: MTT Assay—2000 cells per well were plated into 96 well tissue culture plates, and the cells were allowed to attach overnight at 37° C. with 10% CO2. Cells were then treated with increasing concentrations of ARA-211, or vehicle (DMSO) and incubated for four days. At that time treatment medium was removed and replaced with 100 μl of lmg/ml MTT (Sigma-Aldrich, St. Louis, Mo.) in media and incubated at 37° C., 10% CO2 for 3 hours. After 3 hours the MTT media was removed and replaced with 100 μl/well of DMSO, rocked at room temperature for 5 minutes, then absorbance read at 540 nm on a micro-plate reader.

protein kinase A (PKA) = assay: PKA kinase assay, MDA-MB-231 cells
Description: PKA Kinase Assay—PKA kinase assays were performed with the SignaTECT® cAMP-Dependent Protein Kinase (PKA) Assay System (Promega, Madison Wis.) according to the manufacturer's protocol. Briefly, cells were plated (5×10^6) into 100 mm dishes and treated the next day with ARA-211, H-89 (EMD Biosciences), or vehicle. Cells were lysed using a Dounce homogenizer and lysates were incubated in the supplied kinase reaction buffer, with ^32P-ATP and biotin labeled PKA peptide substrate for 5 min at 37° C. Once the reactions were quenched they were spotted onto streptavidin membranes and ^32P-ATP transfer was measured via scintillation counter.

- cAMP (Fold Induction) (ACHN cells): 16.5 ± 3.2 Fold
Compound: CC(C)(C)NCC(O)c1ccc(O)c(CO)n1 (stereo not drawn) [ARA-211, 2-hydroxymethyl-3-hydroxy-6-(1-hydroxy-2-tert-butylaminoethyl) pyridine, dihydrochloride]
- Anchorage Dependent Growth (% Inhibition) (SNB-19 cells): 0 (n = 3) %
- activation of protein kinase A (PKA) (protein kinase A (PKA)): activation of protein kinase A (PKA)
